From ChEMBL document CHEMBL1201862, “PubChem BioAssay data set” (2004) come the findings set out here.

Molecules are shown by their SMILES.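 Cultured in 96-well plates, cells were exposed to test compound for 48 hours across five concentrations. Abbreviation: GI50, concentration required for 50% inhibition of growth.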 Active and inactive are the calls of the source. No stated cut-off is given here; in the data, active = GI50 up to about 1.1 µM and inactive = higher.

Test systems include MDA-N; SK-MEL-2; NCI-H226; UACC-62; RXF 393; MOLT-4; U-251; SW-620; HCC 2998; OVCAR-4; BT-549; ACHN; T47D; OVCAR-8; HOP-92; SN12C; M14; SK-MEL-28; IGROV-1.
Common to all, as to assay: inhibition of tumour cell growth, NCI panel, 48 h

`O=C1NC(N2CCCC(CO)C2)=N/C1=C\c1ccc(Cl)cc1` (centres undefined): the GI50 with MDA-N, in the experiment with SK-MEL-2, with NCI-H226, in the experiment on UACC-62, in the experiment on RXF 393 and with MOLT-4 was > 100 µM (inactive) in each case. The GI50 was > 100 µM (inactive) in the experiment on U-251; > 100 µM (inactive) in the experiment with SW-620; 35.9 µM (inactive) in the experiment with HCC 2998; > 100 µM (inactive) with OVCAR-4; > 100 µM (inactive) in the experiment on BT-549; > 100 µM (inactive) in the experiment on ACHN. Also, the GI50 was 75.9 µM (inactive) in the experiment on T47D; > 100 µM (inactive) in the experiment with OVCAR-8; 90.8 µM (inactive) in the experiment with HOP-92; > 100 µM (inactive) with SN12C; > 100 µM (inactive) with M14; > 100 µM (inactive) in the experiment on SK-MEL-28. Besides, the GI50 in the experiment on IGROV-1 is 37.1 µM (inactive).
For `CCOP(=O)(OCC)C1CC(n2cc(C)c(=O)[nH]c2=O)OC1CO` (centres undefined), the GI50 in the experiment with MDA-N, with SK-MEL-2, in the experiment on NCI-H226, with UACC-62, in the experiment on RXF 393 and in the experiment on MOLT-4 was > 100 µM (inactive) each time. Also, the GI50 with U-251, in the experiment on SW-620, in the experiment on HCC 2998, in the experiment on OVCAR-4, in the experiment with BT-549 and in the experiment with ACHN was > 100 µM (inactive) throughout. The GI50 with T47D, in the experiment with OVCAR-8, in the experiment with HOP-92, with SN12C, in the experiment on M14 and in the experiment on SK-MEL-28 was > 100 µM (inactive) throughout. Further, the GI50 in the experiment on IGROV-1 is > 100 µM (inactive).
Turning to `CCN(CC)CCOc1ccc(N2Cc3ccccc3C2=O)cc1`, the GI50 with MDA-N, in the experiment with SK-MEL-2, with NCI-H226, in the experiment with UACC-62, in the experiment on RXF 393 and in the experiment with MOLT-4 was > 10 µM (inactive) each time. Also, the GI50 with U-251, with SW-620, in the experiment on HCC 2998, in the experiment with OVCAR-4, with BT-549 and in the experiment with ACHN was > 10 µM (inactive) in each case. Further, the GI50 in the experiment with T47D, in the experiment with OVCAR-8, in the experiment with HOP-92, in the experiment with SN12C, with M14 and in the experiment on SK-MEL-28 was > 10 µM (inactive) in each case. Also, the GI50 in the experiment with IGROV-1 is > 10 µM (inactive).
For the molecule `CC(C)(C)C(=O)Nc1cccc(-c2ccc[nH]2)n1`, the GI50 in the experiment on MDA-N is > 100 µM (inactive); in the experiment with SK-MEL-2, > 100 µM (inactive); in the experiment with NCI-H226 it was > 100 µM (inactive); in the experiment on UACC-62, 86.9 µM (inactive); with RXF 393, > 100 µM (inactive); in the experiment with U-251, > 70.5 µM (inactive). Further, the GI50 in the experiment with SW-620 is > 100 µM (inactive); in the experiment on HCC 2998, > 100 µM (inactive); in the experiment with OVCAR-4, > 55.6 µM (inactive); in the experiment on BT-549, > 100 µM (inactive); with ACHN, > 100 µM (inactive); with T47D, > 57.5 µM (inactive). Moreover, the GI50 with OVCAR-8, in the experiment on HOP-92, in the experiment on SN12C, in the experiment with M14, with SK-MEL-28 and with IGROV-1 was > 100 µM (inactive) each time.
Regarding `NCCN(CCN(C(=O)Nc1ccccc1)c1ccccc1)C(=O)Nc1ccccc1`, the GI50 in the experiment on MDA-N was 20.3 µM (inactive); in the experiment with SK-MEL-2 it was 19.2 µM (inactive); with NCI-H226 it was 32.2 µM (inactive); in the experiment on UACC-62, 16.6 µM (inactive); in the experiment with RXF 393, 14.7 µM (inactive); with MOLT-4, 35.5 µM (inactive). Further, the GI50 was 28.9 µM (inactive) in the experiment with U-251; 22.5 µM (inactive) in the experiment on SW-620; 19.8 µM (inactive) in the experiment on HCC 2998; 22.7 µM (inactive) in the experiment on BT-549; 20.5 µM (inactive) in the experiment with ACHN; 20.7 µM (inactive) with T47D. Besides, the GI50 with OVCAR-8 was 23 µM (inactive); in the experiment on HOP-92, 17.4 µM (inactive); in the experiment on SN12C it was 23.2 µM (inactive); in the experiment with M14 it was 21.3 µM (inactive); in the experiment with SK-MEL-28 it was 19 µM (inactive); with IGROV-1, 17.6 µM (inactive).
In the case of `O=C1C[C@H](c2ccccc2)O[C@@H](c2ccccc2)C1`, the GI50 is > 100 µM (inactive) in the experiment on MDA-N; > 100 µM (inactive) in the experiment with SK-MEL-2; > 100 µM (inactive) with NCI-H226; > 100 µM (inactive) in the experiment on UACC-62; > 100 µM (inactive) in the experiment on RXF 393; 58.1 µM (inactive) in the experiment with MOLT-4. The GI50 with U-251, in the experiment on SW-620, with HCC 2998, in the experiment on OVCAR-4, in the experiment with BT-549 and with T47D was > 100 µM (inactive) each time. Besides, the GI50 in the experiment on OVCAR-8, in the experiment on HOP-92, in the experiment with SN12C, with M14, in the experiment with SK-MEL-28 and in the experiment with IGROV-1 was > 100 µM (inactive) throughout.
As for `COc1ccc(OC/C(N)=N/NC(=O)c2ccncc2)cc1`, the GI50 with MDA-N, in the experiment on SK-MEL-2, in the experiment with UACC-62, with RXF 393, with MOLT-4 and with U-251 was > 100 µM (inactive) throughout. Also, the GI50 in the experiment with SW-620, in the experiment with HCC 2998, in the experiment with OVCAR-4, with BT-549, in the experiment with ACHN and with T47D was > 100 µM (inactive) throughout. Further, the GI50 with OVCAR-8, in the experiment on HOP-92, in the experiment on SN12C, in the experiment on M14, in the experiment with SK-MEL-28 and in the experiment on IGROV-1 was > 100 µM (inactive) each time.
In the case of `Nc1nc(Nc2ccc(Cl)cc2)sc1C(=O)c1cc2ccccc2oc1=O`, the GI50 in the experiment on MDA-N was 37.3 µM (inactive); in the experiment with SK-MEL-2 it was 7.94 µM (inactive); with NCI-H226 it was > 100 µM (inactive); in the experiment with UACC-62, 55.8 µM (inactive); with RXF 393, 82.6 µM (inactive); with U-251, 18.8 µM (inactive). Besides, the GI50 in the experiment on SW-620 is 54.1 µM (inactive); with HCC 2998, 41.9 µM (inactive); with OVCAR-4, 27.7 µM (inactive); in the experiment on BT-549, 28 µM (inactive); with ACHN, > 100 µM (inactive); with T47D, 27.7 µM (inactive). Also, the GI50 in the experiment on HOP-92 is 53.2 µM (inactive); in the experiment with SN12C it was 14.2 µM (inactive); in the experiment with M14, 68.9 µM (inactive); with SK-MEL-28, 46.5 µM (inactive); in the experiment with IGROV-1, 56.6 µM (inactive).
Turning to `O=C(CCc1cc(O)cc(O)c1)NCCc1ccc(O)c(O)c1`, the GI50 in the experiment with MDA-N is 36.7 µM (inactive); in the experiment with SK-MEL-2, > 100 µM (inactive); with NCI-H226, > 100 µM (inactive); with UACC-62, > 100 µM (inactive); in the experiment on RXF 393 it was > 100 µM (inactive); with MOLT-4, > 100 µM (inactive). Moreover, the GI50 in the experiment with U-251, in the experiment on SW-620, in the experiment with HCC 2998, in the experiment with BT-549, with ACHN and in the experiment on T47D was > 100 µM (inactive) each time. Besides, the GI50 in the experiment on OVCAR-8, in the experiment with HOP-92, in the experiment on SN12C, in the experiment with M14, with SK-MEL-28 and with IGROV-1 was > 100 µM (inactive) throughout.
As to `CC(=O)N(C)c1ccc(/N=C/N(C)C)cc1`, the GI50 in the experiment with MDA-N, with SK-MEL-2, in the experiment on NCI-H226, with UACC-62, with RXF 393 and in the experiment on MOLT-4 was > 100 µM (inactive) throughout. Besides, the GI50 in the experiment with U-251, in the experiment on OVCAR-4, in the experiment on BT-549, in the experiment on ACHN, in the experiment on T47D and with OVCAR-8 was > 100 µM (inactive) in each case. The GI50 with HOP-92, in the experiment on SN12C, in the experiment on M14, with SK-MEL-28 and in the experiment on IGROV-1 was > 100 µM (inactive) throughout.
As for `CC(=O)Nc1ccc2c3c(cc(O)c2c1)N(C(=O)CCCC(=O)Nc1ccc2c4c(cc(O)c2c1)N(C(=O)OC(C)(C)C)CC4CCl)CC3CCl` (centres undefined), the GI50 in the experiment on MDA-N was 1.05 µM (active); with SK-MEL-2, 0.955 µM (active); with UACC-62, 0.998 µM (active); in the experiment with RXF 393, 2.58 µM (inactive); in the experiment with MOLT-4 it was 0.0815 µM (active); in the experiment on U-251, 0.841 µM (active). The GI50 in the experiment with SW-620 was 1.82 µM (inactive); in the experiment on HCC 2998 it was 0.771 µM (active); with OVCAR-4, 1.44 µM (inactive); in the experiment on BT-549 it was 0.881 µM (active); in the experiment with ACHN, 5.22 µM (inactive); in the experiment with T47D, 0.418 µM (active). For the same molecule, the GI50 is 1.94 µM (inactive) in the experiment with OVCAR-8; 2.01 µM (inactive) in the experiment on HOP-92; 1.57 µM (inactive) in the experiment on SN12C; 3.22 µM (inactive) in the experiment on M14; 1.91 µM (inactive) with SK-MEL-28; 1.05 µM (active) in the experiment with IGROV-1.
